Where “and” joins values, the source holds several entries; their conditions need not be identical. Equal entries are not always repeated. Where two headings read alike, the source gives them in different places.
Assays:
[1] = biological target: CDK7/cyclinH/MAT1 trimeric complex (Homo sapiens (Human), UniProt P50613); assay: In vitro CDK7 assay, potency of irreversible covalent inhibitors (kinact/KI)
[2] = system: RNA polymerase II Serine 5 phosphorylation (CDK7) in A549 cells
[3] = system: RNA polymerase II Serine 5 phosphorylation in A549 cells overexpressing CDK7 mutant (C312S); assay: Imaging-based cellular RNA PolII Ser5 phosphorylation assay in A549 cells overexpressing CDK7-mutant (C312S); format: cell-based, human; conditions: for IC50: Homo sapiens, A549, A549 cells overexpressing CDK7 mutant (C312S), read-out: CDK7_ A549 mutant hCDK7(pIC50) (converted); for CDK7_ A549 mutant hCDK7(pIC50): A549 cells overexpressing CDK7 mutant (C312S)
Procedure: Data were calculated and analyzed in Phaedra.
From this an IC50 value can be obtained.
In parallel this assay was performed in A549 cells overexpressing CDK7-mutant (C312S) to evaluate the effect of the covalent bond on potency and to screen for potential off-target effects. Mutation of Cysteine to Serine (C312S), a less nucleophilic amino acid, prevents CDK7 inhibitors from covalently binding to CDK7 and from inhibiting CDK7 activity in an irreversible manner. A stably transduced A549 cell pool was generated that overexpresses CDK7 mutant (C312S), but also expresses endogenous CDK7-WT. Covalent binders targeting the cysteine at position 312 will show a shift in potency in A549 cells overexpressing mutant C312S CDK7.

[4] = CDK7 (20 nM enz.) (KI, μM), 20 nM enz.
[5] = read-out: CDK7 (20 nM enz.) (kinact, s^−1), 20 nM enz.
[6] = read-out: CDK7 (20 nM enz.) (kinact/ KI, M^−1*s^−1), 20 nM enz.
[7] = read-out: CDK7 (kinact, s^−1), Table B
[8] = read-out: CDK7 (kinact/KI, M^−1*s^−1), Table B

Sequence of CDK7/cyclinH/MAT1 trimeric complex (P50613 whole entry): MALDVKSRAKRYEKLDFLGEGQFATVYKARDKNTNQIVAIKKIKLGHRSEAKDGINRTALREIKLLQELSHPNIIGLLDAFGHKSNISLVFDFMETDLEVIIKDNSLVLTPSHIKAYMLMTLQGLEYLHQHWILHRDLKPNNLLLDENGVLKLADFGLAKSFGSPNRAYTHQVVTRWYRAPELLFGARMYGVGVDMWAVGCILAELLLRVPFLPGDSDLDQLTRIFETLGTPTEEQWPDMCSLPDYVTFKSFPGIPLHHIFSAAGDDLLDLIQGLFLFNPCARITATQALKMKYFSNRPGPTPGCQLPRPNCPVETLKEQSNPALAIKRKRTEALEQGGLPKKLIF
Sequence of CDK7/cyclinH/MAT1 trimeric complex (P51946 whole entry partner): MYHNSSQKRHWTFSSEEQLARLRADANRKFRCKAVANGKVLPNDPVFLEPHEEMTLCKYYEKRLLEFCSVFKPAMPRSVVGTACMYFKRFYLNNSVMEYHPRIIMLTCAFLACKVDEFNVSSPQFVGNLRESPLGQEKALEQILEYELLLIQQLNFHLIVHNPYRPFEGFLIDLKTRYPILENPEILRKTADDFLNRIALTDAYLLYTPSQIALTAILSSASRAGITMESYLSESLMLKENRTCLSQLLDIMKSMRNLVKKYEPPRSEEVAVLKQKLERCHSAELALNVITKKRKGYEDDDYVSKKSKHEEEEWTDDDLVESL
Sequence of CDK7/cyclinH/MAT1 trimeric complex (P51948 whole entry partner): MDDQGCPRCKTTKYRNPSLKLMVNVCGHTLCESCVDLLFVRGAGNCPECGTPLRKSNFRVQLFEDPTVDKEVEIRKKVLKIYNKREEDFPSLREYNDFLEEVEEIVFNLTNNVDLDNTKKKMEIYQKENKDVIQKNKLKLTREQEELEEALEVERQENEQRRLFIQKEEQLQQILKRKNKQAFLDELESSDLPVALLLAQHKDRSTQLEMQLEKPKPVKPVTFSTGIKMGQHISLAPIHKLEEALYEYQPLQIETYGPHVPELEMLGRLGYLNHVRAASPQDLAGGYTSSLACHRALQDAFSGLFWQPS

Structure (SMILES) | Ki [1, 4] | kinact [1, 5] | kinact/KI [1, 6] | IC50 [2] | IC50 [3] | Ki ([1]; CDK7 (KI(μM)), Table B) | kinact [1, 7] | kinact/KI [1, 8] | CDK7 (20 nM enz.) (kinact/ KI, M^−1*s^−1) ([1]; 20 nM enz.) | CDK7 (20 nM enz.) (kobs/[I], M^−1*s^−1) ([1]; 20 nM enz.) | CDK7_ A549 mutant hCDK7(pIC50) [3]
C=CC(=O)N1CCC(N2CC(c3cc(Cl)c4c(c3)Nc3ncnc(C5CCOCC5)c3CO4)C2)CC1 [compound 19] | 0.542 µM | 8.14e-05 s⁻¹ | 150 M⁻¹ s⁻¹ | 0.871 µM | > 10 µM |  |  |  |  |  | 
C=CC(=O)N1CC[C@H](N2CCC(c3ccc4c(c3)Nc3ncnc(N5CCOCC5)c3CO4)CC2)C1 [compound 5] |  |  |  | 0.891 µM | ~8.91 µM | 0.595 µM | 0.000243 s⁻¹ | 408 M⁻¹ s⁻¹ |  |  | 
C=CC(=O)N1CC[C@H](N2CC(c3cc4c(c(C)n3)OCc3c(ncnc3N3CCS(=O)(=O)CC3)N4)C2)C1 (single isomer, unassigned) [compound 78] | 0.168 µM | 3.85e-05 s⁻¹ | 229 M⁻¹ s⁻¹ | 5.37 µM | > 10 µM |  |  |  |  |  | 
C=CC(=O)N1CC(N2CCC(c3cc(C#N)c4c(c3)Nc3ncnc(N5CCOCC5)c3CO4)CC2)C1 [compound 106] | 0.0858 µM | 6.75e-05 s⁻¹ | 786 M⁻¹ s⁻¹ | 0.245 µM | > 10 µM |  |  |  |  |  | 
C=CC(=O)N1CC[C@H](N2CC(c3cc(C)c4c(c3)Nc3ncnc(N5CCS(=O)(=O)CC5)c3[C@@H](C)O4)C2)C1 (single isomer, unassigned) [compound 121] |  |  |  | 0.0282 µM and ~0.0316 µM |  |  |  |  | 611.255 M⁻¹ s⁻¹ | 1089.23 M⁻¹ s⁻¹ | <5
C=CC(=O)N1CC(N2CC[C@H](c3cc4c(c(C)n3)OCc3c(ncnc3N3CCS(=O)(=O)CC3)N4)C2)C1 [compound 31] | 0.226 µM | 5.87e-05 s⁻¹ | 260 M⁻¹ s⁻¹ | 2.75 µM | > 10 µM |  |  |  |  |  | 
C=CC(=O)N1CC(N2CC(c3cc(C)c4c(c3)Nc3ncnc(-c5cnn(C)c5)c3[C@@H](C)O4)C2)C1 (single isomer, unassigned) [compound 109] | 0.13 µM | 4.5e-05 s⁻¹ | 345 M⁻¹ s⁻¹ | 0.363 µM | > 10 µM |  |  |  |  |  | 
CC#CC(=O)N1CC(C)(N2CCC(c3cc(C)c4c(c3)Nc3ncnc(N5CCS(=O)(=O)CC5)c3[C@@H](C)O4)CC2)C1 [compound 144] | 0.00389 µM | 4.73e-05 s⁻¹ | 12200 M⁻¹ s⁻¹ | ~0.0468 µM | > 10 µM |  |  |  |  |  | 
CC#CC(=O)N1CC(N2CCC(c3cc(C)c4c(c3)Nc3ncnc(N5CCOC6(COC6)C5)c3CO4)CC2)C1 [compound 195] | 0.108 µM | 5.21e-05 s⁻¹ | 485 M⁻¹ s⁻¹ | 0.102 µM | > 10 µM |  |  |  |  |  | 
C=CC(=O)N1CC(N2CCC(c3cc(F)c4c(c3)Nc3ncnc(N5CCOCC5)c3CO4)CC2)C1 [compound 20] | 0.0693 µM | 4.85e-05 s⁻¹ | 699 M⁻¹ s⁻¹ | 0.646 µM | > 10 µM |  |  |  |  |  | 
C=CC(=O)N1CC(N2CC[C@@H](c3ccc4c(c3)Nc3ncnc(N5CCOCC5)c3CO4)C2)C1 [compound 10] |  |  |  | 1.82 µM | > 10 µM | 0.38 µM | 0.000155 s⁻¹ | 409 M⁻¹ s⁻¹ |  |  | 
C=CC(=O)N1CC(N2CC(c3cc(C)c4c(c3)Nc3ncnc(N5CCOCC5)c3C(C)O4)C2)C1 (stereo not drawn) [compound 103] | 0.32 µM | 5.08e-05 s⁻¹ | 159 M⁻¹ s⁻¹ | ~1.02 µM | > 10 µM |  |  |  |  |  | 
C=CC(=O)N1CCC(N2CC[C@H](c3cc(C)c4c(c3)Nc3ncnc(N5CCOCC5)c3CO4)C2)CC1 [compound 24] | 0.533 µM | 4.78e-05 s⁻¹ | 89.6 M⁻¹ s⁻¹ | 0.646 µM | > 10 µM |  |  |  |  |  | 
CC#CC(=O)N1CCC(N2CCN(c3cc(C)c4c(c3)Nc3ncnc(N5CCS(=O)(=O)CC5)c3[C@@H](C)O4)CC2)CC1 [compound 154] | 0.00416 µM | 5.87e-05 s⁻¹ | 14100 M⁻¹ s⁻¹ | ~0.0537 µM | > 10 µM |  |  |  |  |  | 
CC#CC(=O)N1CC(N2CCN(c3cc(C)c4c(c3)Nc3ncnc(N5CCS(=O)(=O)CC5)c3[C@@H](C)O4)CC2)C1 [compound 155] | 0.00172 µM | 2.06e-05 s⁻¹ | 12200 M⁻¹ s⁻¹ | 0.214 µM | > 10 µM |  |  |  |  |  | 
C=CC(=O)N1CC(N2CCC(c3cc(C#N)c4c(c3)Nc3ncnc(-c5cnn(C)c5)c3CO4)CC2)C1 [compound 74] | 0.132 µM | 5.42e-05 s⁻¹ | 412 M⁻¹ s⁻¹ | 1.17 µM | > 10 µM |  |  |  |  |  | 
C=CC(=O)N1CC[C@@H](N2CC(c3cc(C)c4c(c3)Nc3ncnc(N5CCOCC5)c3CO4)C2)C1 [compound 17] | 0.716 µM | 6.7e-05 s⁻¹ | 93.7 M⁻¹ s⁻¹ | 0.38 µM | > 10 µM |  |  |  |  |  | 
C=CC(=O)N1CCC(N2CC(c3cc(F)c4c(c3)Nc3ncnc(N5CCOCC5)c3[C@@H](C)O4)C2)CC1 [compound 27] | 5.21 µM | 4.89e-05 s⁻¹ | 9.39 M⁻¹ s⁻¹ | 4.79 µM | > 10 µM |  |  |  |  |  | 
C=CC(=O)N1CC(N2CCC(c3cc(C)c4c(c3)Nc3ncnc(N5CCCC(C#N)C5)c3CO4)CC2)C1 (stereo not drawn) [compound 67] | 1.2 µM | 0.000103 s⁻¹ | 85.8 M⁻¹ s⁻¹ | 1.32 µM | > 10 µM |  |  |  |  |  | 
C=CC(=O)N1CC(N2CC(c3cc(C)c4c(c3)Nc3ncnc(N5CCS(=O)(=O)CC5)c3CO4)C2)C1 [compound 111] | 0.112 µM | 0.000116 s⁻¹ | 1030 M⁻¹ s⁻¹ | 0.288 µM | > 10 µM |  |  |  |  |  | 
C=CC(=O)NCCN1CCC(c2ccc3c(c2)Nc2ncnc(N4CCOCC4)c2CO3)CC1 [compound 3] |  |  |  | 0.912 µM | > 10 µM | 1.03 µM | 0.000166 s⁻¹ | 161 M⁻¹ s⁻¹ |  |  | 
C=CC(=O)N1CC(N2CCC(c3cc(C)c4c(c3)Nc3ncnc(N5CCC(S(C)(=O)=O)CC5)c3CO4)CC2)C1 [compound 70] |  |  |  | > 10 µM | > 10 µM |  |  |  |  |  | 
[2H]C([2H])([2H])C#CC(=O)N1CC[C@@H](N2CC(c3cc(C)c4c(c3)Nc3ncnc(N5CCS(=O)(=O)CC5)c3[C@@H](C)O4)C2)C1 (single isomer, unassigned) [compound 165] |  |  |  | 0.105 µM | > 10 µM |  |  |  |  |  | 
CC#CC(=O)N1CC(N2CCC(c3cc(C)c4c(c3)Nc3ncnc(N5CCS(=O)(=O)CC5)c3[C@@H](C)O4)CC2)C1 [compound 158] |  |  |  | 0.0741 µM |  |  |  |  |  |  | ~5.22
Cc1cc(C2CCN(C3CN(C(=O)C#CCCN4CCOCC4)C3)CC2)cc2c1O[C@H](C)c1c(ncnc1N1CCS(=O)(=O)CC1)N2 [compound 175] |  |  |  | ~0.0263 µM | ~10 µM |  |  |  |  |  | 
[2H][C@]1(N2CC(c3cc(C)c4c(c3)Nc3ncnc(N5CCS(=O)(=O)CC5)c3[C@@H](C)O4)C2)CCN(C(=O)C#CC)C1 (single isomer, unassigned) [compound 159] |  |  |  | 0.178 µM | > 10 µM |  |  |  |  |  | 
[2H]C([2H])([2H])C#CC(=O)N1CC(N2CCC(c3cc(C)c4c(c3)Nc3ncnc(N5CCS(=O)(=O)CC5)c3[C@@H](C)O4)CC2)C1 [compound 164] |  |  |  | 0.0537 µM | > 10 µM |  |  |  |  |  | 
CC#CC(=O)N1CC[C@@H](N2CCC(c3cc(C)c4c(c3)Nc3ncnc(N5CCS(=O)(=O)CC5)c3CO4)CC2)C1 (single isomer, unassigned) [compound 135] |  |  |  | ~0.0501 µM | > 10 µM |  |  |  |  |  | 
CC#CC(=O)N1CC[C@](C)(N2CCC(c3cc(C)c4c(c3)Nc3ncnc(N5CCS(=O)(=O)CC5)c3[C@@H](C)O4)CC2)C1 (single isomer, unassigned) [compound 146] |  |  |  | < 0.00245 µM | 4.37 µM |  |  |  |  |  | 
